According to patent US10696693B2, “Fused imidazole derivatives as TGF-beta inhibitors” (Rigel Pharmaceuticals, Inc., priority 2014, dated 2020):
Where two headings read alike, the source gives them in different places.

Experiments:
GDF8 = assay: AlphaScreen SureFire p-SMAD3 (Ser423/425) assay, GDF8-stimulated cells; type: cell-based; details: Mus musculus
Outline: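 Lysate (5 μL) went into 384-well shallow plates with 5 μL of Reaction Buffer, Activation Buffer and AlphaScreen Acceptor bead mix. Plates were sealed, kept dark and shaken for 2 hours at room temperature. Donor beads in dilution buffer (2 μL) were added for another 1½ hours, and p-SMAD3 signal was read on a Synergy-4 or Enspire reader.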

TGF-β = assay: AlphaScreen SureFire p-SMAD3 (Ser423/425) assay, TGF-β-stimulated cells; type: cell-based; details: Mus musculus
Outline: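 The p-SMAD-3 (Ser423/425) SureFire assay measured phosphorylation of endogenous SMAD-3 in cell lysates. Cells were plated overnight in collagen-coated plates, exposed to three-fold serially diluted compounds for about 10 minutes, then stimulated with TGFβ. Lysates (5 μL) received acceptor bead mix for 2 hours, then donor beads for 1½ hours before AlphaScreen reading.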

[1] = MPC-11, p-SMAD3 (Ser423/425) AlphaScreen in cell lysate, MPC11, GDF8 stimulation, read-out: GDF8: inhibition of GDF8 signaling, GDF pSMAD (MPC11)
[2] = p-SMAD3 (Ser423/425) AlphaScreen in cell lysate, MPC-11, TGF-β stimulation, read-out: TGF-β: inhibition of TGF-β signaling, TGF-β pSMAD (MPC-11)
[3] = MPC-11, read-out: GDF8: inhibition of GDF8 signaling, GDF pSMAD (MPC11), p-SMAD3 (Ser423/425) AlphaScreen in cell lysate, GDF8 stimulation
[4] = MPC-11, read-out: TGF-β: inhibition of TGF-β signaling, TGF-β pSMAD (MPC-11), p-SMAD3 (Ser423/425) AlphaScreen in cell lysate, TGF-β stimulation

| IC50 (GDF8; [1]) | IC50 (TGF-β; [2]) | Compound | IC50 (GDF8; [3]) | IC50 (TGF-β; [4]) |
| --- | --- | --- | --- | --- |
| 100 to 1000 nM | > 1000 nM | Fc1cc(Cl)c(-c2nc3n(c2-c2ccc4ncccc4c2)CCC3)cc1F [Compound 290, 6-(2-(2-chloro-4,5-difluorophenyl)-6,7-dihydro-5H-pyrrolo[1,2-a]imidazol-3-yl)quinoline] | – | – |
| – | – | Fc1cc(Cl)c(-c2nc3n(c2-c2ccc4nccnc4c2)CCC3)cc1F [Compound 291, 6-(2-(2-chloro-4,5-difluorophenyl)-6,7-dihydro-5H-pyrrolo[1,2-a]imidazol-3-yl)quinoxaline] | 50 to 100 nM | 100 to 1000 nM |
| – | – | Cc1cc(F)ccc1-c1nc2n(c1-c1ccc3[nH]ncc3c1)CCC2 [Compound 292, 5-(2-(4-fluoro-2-methylphenyl)-6,7-dihydro-5H-pyrrolo[1,2-a]imidazol-3-yl)-1H-indazole] | > 1000 nM | > 1000 nM |
| 100 to 1000 nM | 100 to 1000 nM | Cc1cc(F)ccc1-c1nc2n(c1-c1ccc3ncsc3c1)CCC2 [Compound 293, 6-(2-(4-fluoro-2-methylphenyl)-6,7-dihydro-5H-pyrrolo[1,2-a]imidazol-3-yl)benzo[d]thiazole] | – | – |
| – | – | Cc1cc(F)ccc1-c1nc2n(c1-c1ccc3nccnc3c1)CCC2 [Compound 294, 6-(2-(4-fluoro-2-methylphenyl)-6,7-dihydro-5H-pyrrolo[1,2-a]imidazol-3-yl)quinoxaline] | > 1000 nM | > 1000 nM |
| > 1000 nM | > 1000 nM | Cc1cc(F)ccc1-c1nc2n(c1-c1ccc3ncccc3c1)CCC2 [Compound 295, 6-(2-(4-fluoro-2-methylphenyl)-6,7-dihydro-5H-pyrrolo[1,2-a]imidazol-3-yl)quinoline] | – | – |
| 100 to 1000 nM | > 1000 nM | Cc1cc(F)c(Cl)cc1-c1nc2n(c1-c1ccc3[nH]ncc3c1)CCC2 [Compound 296, 5-(2-(5-chloro-4-fluoro-2-methylphenyl)-6,7-dihydro-5H-pyrrolo[1,2-a]imidaol-3-yl)-1H-indazole] | – | – |
| 100 to 1000 nM | 100 to 1000 nM | Cc1cc(F)c(Cl)cc1-c1nc2n(c1-c1ccc3ncsc3c1)CCC2 [Compound 297, 6-(2-(5-chloro-4-fluoro-2-methylphenyl)-6,7-dihydro-5H-pyrrolo[1,2-a]imidazol-3-yl)benzo[d]thiazole] | – | – |
| – | – | Cc1cc(F)c(Cl)cc1-c1nc2n(c1-c1ccc3nccnc3c1)CCC2 [Compound 298, 6-(2-(5-chloro-4-fluoro-2-methylphenyl)-6,7-dihydro-5H-pyrrolo[1,2-a]imidazol-3-yl)quinoxaline] | 100 to 1000 nM | > 1000 nM |
| – | – | Cc1cc(F)c(Cl)cc1-c1nc2n(c1-c1ccc3ncccc3c1)CCC2 [Compound 299, 6-(2-(5-chloro-4-fluoro-2-methylphenyl)-6,7-dihydro-5H-pyrrolo[1,2-a]imidazol-3-yl)quinoline] | 100 to 1000 nM | > 1000 nM |
| – | – | Cc1ccc(F)cc1-c1nc2n(c1-c1ccc3[nH]ncc3c1)CCC2 [Compound 300, 5-(2-(5-fluoro-2-methylphenyl)-6,7-dihydro-5H-pyrrolo[1,2-a]imidazol-3-yl)-1H-indazole] | > 1000 nM | > 1000 nM |
| – | – | Cc1ccc(F)cc1-c1nc2n(c1-c1ccc3ncsc3c1)CCC2 [Compound 301, 6-(2-(5-fluoro-2-methylphenyl)-6,7-dihydro-5H-pyrrolo[1,2-a]imidazol-3-yl)benzo[d]thiazole] | 100 to 1000 nM | > 1000 nM |
| – | – | Cc1ccc(F)cc1-c1nc2n(c1-c1ccc3nccnc3c1)CCC2 [Compound 302, 6-(2-(5-fluoro-2-methylphenyl)-6,7-dihydro-5H-pyrrolo[1,2-a]imidazol-3-yl)quinoxaline] | > 1000 nM | > 1000 nM |
| > 1000 nM | > 1000 nM | Cc1ccc(F)cc1-c1nc2n(c1-c1ccc3ncccc3c1)CCC2 [Compound 303] | – | – |
| > 1000 nM | > 1000 nM | Cc1ccccc1-c1nc2n(c1-c1ccc3[nH]ncc3c1)CCC2 [Compound 304, 5-(2-(o-tolyl)-6,7-dihydro-5H-pyrrolo[1,2-a]imidazol-3-yl)-1H-indazole] | – | – |
